Reference: US12329738B2, “Urolithin A and a composition containing same for external use in inflammations of various etiologies” (WARSZAWSKI UNIWERSYTET MEDYCZNY, priority 2018, dated 2025)

How the values were obtained:
[1] = test system: S100A8/A9 protein (calprotectin); test: Extracellular S100A8/A9 level, LPS-stimulated human neutrophils (ELISA); format: cell-based; conditions: 40, 10 and 1 μM; LPS 10 ng/mL; 30 min; concentration dependent
Procedure: In order to comparatively study the biological activity of urolithins and their derivatives, these compounds were obtained by chemical synthesis, and then their activity against release of calprotectin by stimulated neutrophils was examined. Peripheral blood was collected from healthy donors (aged 20-35) at the Regional Blood Donation and Blood Treatment Center (Regionalne Centrum Krwiodawstwa i Krwiolecznictwa) in Warsaw. The study was conducted in accordance with the principles of the Declaration of Helsinki. […] Neutrophils were isolated using a standard method (Piwowarski et al., 2014a). Neutrophils were then suspended in HBSS. 50 μL of urolithin A, urolithin B or iso-urolitin A at the appropriate concentration (to achieve final concentrations of 40, 10 and 1 μM) and 10 μL of LPS solution (final concentration of 10 ng/mL) were added to 440 μl of cell suspension (3×10^5 cells/mL). Cells were incubated at 37° C. for 30 min, then centrifuged at 4° C., 400 rcf for 10 min. The experiment was carried out on blood samples taken from 4 different donors in duplicates. The effect of urolithins on the production of S100A8/A9 was determined using the immunochemical ELISA method (R&D Systems).
The obtained results of experiments on in vitro models were analyzed using the Statistica 13 program (StatSoft, Inc., Tulsa, OK, USA) and presented as mean values±SEM. […]

[2] = test system: neutrophils and macrophages; conditions: cited from earlier work

O=c1oc2cc(O)ccc2c2ccc(O)cc12 [urolithin A]
Extracellular level of S100A8/A9 protein (calprotectin) [1]: significant decrease | Cytotoxic or antiproliferative activity [2]: there was not observed either cytotoxic or antiproliferative activity
